These results are taken from PubChem BioAssay AID489032 (Sanford-Burnham Center for Chemical Genomics, 2010).

The source made the active and inactive calls. No rule for the calls is given here.

The term EC50 denotes the concentration that produces a half-maximal response.

For the assay, the system named is UPR adaptive arm reporter cells, luciferase luminescence. Nature of the assay: adaptive unfolded protein response reporter activation – cell-based, luciferase luminescence, dose response (AID 489032).
With `Cn1cc(/C=C(\C#N)C(=O)Nc2cccc([N+](=O)[O-])c2)c2ccccc21`, the EC50 was > 80 µM (inactive).

In the case of `CCCC[C@@H](C)C[C@@H](C)C(=O)N(C)[C@@H](CC(C)C)C(=O)N[C@H](C(=O)N(C)[C@H](C(=O)N1C[C@@H](O)C[C@H]1C(=O)N1C(=O)C=C[C@@H]1C)C(C)C)C(C)OC(C)=O` (some centres undefined), the half-maximal effective concentration (EC50) was 13.4 µM.

As to `Cc1ccc(-c2nnn(CC(=O)N(Cc3cccs3)C(C(=O)NC3CCCCC3)c3ccco3)n2)o1` (centres undefined), the EC50 is > 80 µM (inactive). For the compound `CCC(C)(C)C1CCC2(CC1)NC(=O)N(CC(=O)N1CCN(S(=O)(=O)c3cc(C)ccc3C)CC1)C2=O` (centres undefined), the EC50 was 27.2 µM (inactive). In the case of `O=C(/C=C/c1ccc(Cl)cc1)NC(=S)Nc1ccc(N2CCOCC2)c(Cl)c1` it was > 80 µM (inactive); in that of `CN(C)CCCN(C(=O)c1ccc(S(=O)(=O)N2CCCCCC2)cc1)c1nc2ccc(Br)cc2s1`, > 80 µM (inactive). For the compound `C#CCn1c(=NC(=O)c2ccc(Br)s2)sc2cccc(OC)c21`, the EC50 was > 80 µM (inactive). In the case of `Cc1cnc(NC(=O)c2cc(S(=O)(=O)N(C)C)ccc2N2CCCC2)s1` it was 6.6 µM; in that of `C=CCN(CC=C)S(=O)(=O)c1ccc(C(=O)Nc2nc3c(s2)CCc2ccccc2-3)cc1`, 39.9 µM (inactive). With `CCCCCCCCCCOC(=O)Cn1c(COc2ccccc2C)[n+](C)c2ccccc21` the figure was > 80 µM (inactive); with `CSc1ccccc1NC(=O)c1cc(-c2cccnc2)nc2ccc(Br)cc12`, > 80 µM (inactive). In the case of `COc1ccc(-c2csc(NC(=S)NC(=O)/C=C/c3ccco3)n2)cc1Br` it was 41.9 µM (inactive); in that of `CCC(=O)Nc1cccc(C(=O)/C=C/c2ccc(F)cc2)c1`, > 80 µM (inactive). With `O=C(NC1CCCCC1)c1cccc2c1C(=O)c1ccc(-c3ccc(OC(F)(F)F)cc3)cc1S2(=O)=O`, the EC50 is > 80 µM (inactive). In the case of `COc1ccc(N=c2oc3ccc(OC)cc3cc2-c2nc3ccccc3[nH]2)cc1` it was 15.3 µM; in that of `CCCCCCCCCCOC(=O)Cn1c(COc2ccc(OC)cc2)[n+](C)c2ccccc21`, > 80 µM (inactive). With `Cc1cccc2cc(C(c3nnnn3Cc3ccccc3)N3CCCc4ccccc43)c(=O)[nH]c12` (centres undefined) the figure was 32.5 µM (inactive); with `CCc1ccc2[nH]c3nc(SCC(=O)NNC(=O)c4ccc(C(C)(C)C)cc4)nnc3c2c1`, 32.3 µM (inactive).

As to `O=C(O)c1ccc(N2C(=O)/C(=C/c3ccc(-c4ccc([N+](=O)[O-])cc4)o3)C=C2c2ccccc2)cc1`, the EC50 was > 80 µM (inactive). In the case of `CCCOC(=O)c1cccc(Nc2nc(-c3cccnc3)nc3ccccc23)c1` it was > 80 µM (inactive); in that of `O=C(NC(=S)Nc1ccc(NC(=O)c2cccs2)cc1)c1cc2ccccc2o1`, > 80 µM (inactive).

For the compound `N#Cc1ccc(N/N=C/c2cn(-c3ccccc3)nc2-c2ccccc2)c([N+](=O)[O-])c1`, the EC50 was > 80 µM (inactive).

For `CCc1nc(C)cn1S(=O)(=O)c1cc([N+](=O)[O-])ccc1Cl`, the EC50 was > 80 µM (inactive). In the case of `CN(C)c1ccc(/C=N/NC(=O)c2ccc(NC(=O)c3ccccc3)cc2)cc1` it was > 80 µM (inactive); in that of `COc1ccc2[nH]c3c(c2c1)CCN1C(=O)C(CC(=O)NC/C=C(\C)CCC=C(C)C)C[C@H](C(=O)N(C(C)C)C(C)C)[C@@]31C` (some centres undefined), 60.1 µM (inactive); in that of `Cc1ccc(-c2ccnc(-c3ccc(O)cc3)n2)cc1`, 63.8 µM (inactive). With `Cc1nc(NC(=O)CSc2ccc(-c3nc4ccccc4[nH]3)cn2)sc1C` the figure was > 80 µM (inactive). With `COc1ccc(/C=N/Nc2nnc(-c3ccccc3)c(=O)[nH]2)cc1` the figure was 19.8 µM; with `Cc1nn(Cc2c(Cl)cccc2Cl)c(C)c1NC(=O)c1sc2ccccc2c1Cl`, 29.8 µM (inactive). With `N#Cc1ccccc1/C=N/Nc1nc(-c2ccccc2)c2cc(Cl)ccc2n1`, the EC50 was > 80 µM (inactive).

Consider `COC(=O)c1c(NC(=O)c2nc3ccccc3s2)sc2c1CC(C)(C)NC2(C)C`, for which the EC50 is > 80 µM (inactive). On to `Cc1ccc(N=Cc2c(O)n(-c3ccc4c(c3)OCO4)c(=O)c3ccccc23)cc1`, for which the EC50 was > 80 µM (inactive). In the case of `CCC1(c2ccc(F)cc2)NC(=O)N(CC(=O)Nc2ccc(-c3nc4ccc(C)cc4s3)cc2)C1=O` (centres undefined), the EC50 was > 80 µM (inactive). With `CCOc1ccccc1NC(=O)Cn1c(=O)n(-c2ccccc2)c(=O)c2oc3ccccc3c21` the figure was > 80 µM (inactive); with `Cc1ccc(-n2nc3c(N4CCC(C(=O)NCCc5cccs5)CC4)nnc(C)c3c2C)cc1`, > 80 µM (inactive); with `COc1ccc(/C=C/c2nc3cc(-c4ccccc4)ccc3o2)cc1O`, > 80 µM (inactive). `COc1ccc2cc(C)c3nnc(SCC(=O)Nc4nc(-c5ccc(F)cc5)cs4)n3c2c1`: the EC50 was 23.7 µM (inactive).

As for `Cc1cccc(Nc2nc3c(S(=O)(=O)c4ccccc4)nnn3c3ccccc23)c1C`, the EC50 was 50.2 µM (inactive). In the case of `CCOc1ccccc1CNC(=O)C1CCN(c2nnc(C)c3c(C)n(-c4ccc(C)cc4)nc23)CC1` it was > 80 µM (inactive); in that of `CC1=Nc2ccccc2/C1=C\c1sc(Nc2ccc(C)cc2)nc1O`, > 80 µM (inactive). `Cc1cccnc1Nc1nc(-c2ccc(O)c(O)c2)cs1`: the EC50 is > 80 µM (inactive).

Regarding `CCCCN1C(=O)/C(=C2/Sc3ccc(OC)cc3N2CC)SC1=S`, the EC50 is > 80 µM (inactive). With `O=C(CC1C[C@H](C(=O)N2CCCCC2)[C@@]2(CCc3ccccc3)c3[nH]c4ccccc4c3CCN2C1=O)NCCC1=CCCCC1` (some centres undefined) the figure was 43 µM (inactive); with `Oc1ccc(/C=N/Nc2ncnc3c2ncn3Cc2ccccc2)cc1O`, 11 µM; with `O=[N+]([O-])c1cccc(/C=C/c2ccc3cccc(O)c3n2)c1`, 28.7 µM (inactive). With `CCOC(=O)Cc1csc(/N=C/c2c(O)n(-c3ccc(C)c(C)c3)c(=O)c3ccccc23)n1` the figure was > 80 µM (inactive); with `COc1ccc(-c2cc(-c3ccccc3)c(C#N)c(S(C)(=O)=O)n2)cc1`, 4.88 µM; with `N#Cc1cnn2c1nc(N1CCCCC1)c1ccccc12`, > 80 µM (inactive). In the case of `COc1ccc(NC(=O)c2sc3nc(N4CCOCC4)c4c(c3c2N)CC(C)(C)OC4)c(OC)c1` it was > 80 µM (inactive); in that of `CC1CCc2c(sc(NC(=O)CCc3nc4ccccc4c(=O)[nH]3)c2C#N)C1` (centres undefined), 30.3 µM (inactive); in that of `FC(F)(F)c1nc2ccccc2n2c(-c3ccc(Cl)cc3)nnc12`, > 80 µM (inactive). As to `CC(C)(C)c1cc(-c2nc(N)nc(N)n2)c(O)c(C(C)(C)C)c1`, the EC50 is 38.8 µM (inactive).

As for `O=C(NCc1ccccc1Br)c1cccc2c1C(=O)c1ccc(-c3ccc(OC(F)(F)F)cc3)cc1S2(=O)=O`, the EC50 is 19.2 µM. Consider `CN(C)S(=O)(=O)c1ccc(N2CCCC2)c(C(=O)Nc2nc3ccccc3s2)c1`, for which the 50% effective concentration (EC50) was 15.7 µM. Regarding `COc1ccc(-c2cc(=O)oc3c(C)c(OC(=O)c4cccs4)ccc23)cc1`, the EC50 was > 80 µM (inactive). As for `CCOc1ccccc1N=Cc1c(O)c2ccccc2oc1=O`, the EC50 is 11.6 µM. As to `Cc1ccc(S(=O)(=O)Cc2cc(F)c([N+](=O)[O-])cc2[N+](=O)[O-])cc1`, the EC50 was > 80 µM (inactive).

Turning to `Cc1ccc(C(=O)Cn2c(C(=O)/C=C/c3ccccc3)nc3ccccc32)cc1`, the EC50 was 44.8 µM (inactive). With `COc1cc(-c2noc(C)c2/C=C/c2ccc(OC(C)=O)cc2)cc(OC)c1OC` the figure was > 80 µM (inactive). With `O=C(NCCCn1ccnc1)c1nn2c(C(F)(F)F)cc(-c3ccc(Br)cc3)nc2c1Cl` the figure was 21.6 µM (inactive). In the case of `CC(C)N=C(NS(=O)(=O)c1ccccc1)C(Cl)(Cl)Cl` it was > 80 µM (inactive). As for `CCc1ccc(NC(=O)C(CC)Sc2nc3cc4c(cc3c(=O)n2Cc2ccco2)OCO4)cc1` (centres undefined), the EC50 is > 80 µM (inactive). `N#C/C(=C\c1ccc(N2CCCC2)c([N+](=O)[O-])c1)c1nc2ccccc2[nH]1`: the EC50 was > 80 µM (inactive). In the case of `COc1ccc2nc(C)cc(SCC(=O)N/N=C/c3cccc4ccccc34)c2c1` it was 17.8 µM; in that of `COC(=O)c1c(NC(=O)CC2Nc3ccccc3NC2=O)sc(C)c1C` (centres undefined), > 80 µM (inactive). On to `CCOC(=O)C1=C(C)n2c(s/c(=C/c3cccc([N+](=O)[O-])c3)c2=O)=NC1c1ccc(O)c(OC)c1` (centres undefined), for which the EC50 was > 80 µM (inactive).

Take `Cc1ccc(-c2nn(CC(=O)NCc3cc(-c4nn(C)c(=O)c5ccccc45)ccc3C)c(=O)c3ccccc23)cc1`: the EC50 was > 80 µM (inactive). In the case of `CC1CCCCC1N1CN=C(Nc2nc3ccccc3s2)NC1` (centres undefined) it was > 80 µM (inactive).

Turning to `N=c1n(CC(=O)c2ccc([N+](=O)[O-])cc2)c2ccccc2n1Cc1ccc(Cl)cc1`, the EC50 is > 80 µM (inactive). In the case of `COCc1cc(C)nc(OCC(=O)N/N=C/c2ccc(-c3cc([N+](=O)[O-])ccc3Cl)o2)c1C#N` it was 13.5 µM; in that of `CCN(CC)c1ccc(-c2nn3c(-c4ccccc4OC)nnc3s2)cc1`, > 80 µM (inactive); in that of `COc1ccc(C(CCNC(C)c2ccccc2)c2ccc(F)cc2)cc1` (centres undefined), > 80 µM (inactive).

With `Oc1cccc(-c2nc3c4c(ncn3n2)-c2ccccc2CC42CCCC2)c1`, the EC50 is > 80 µM (inactive). On to `CCOC(=O)/C(=C\c1ccccc1)C(=O)c1cc(C(C)=O)c(Nc2ccccc2)s1`, for which the EC50 is > 80 µM (inactive). In the case of `COc1ccc(-c2csc3nc(-c4ccc(C)cc4)oc(=O)c23)cc1OC` it was > 80 µM (inactive). With `CN(C)CCCN(C(=O)c1cc(-c2cccs2)nc2ccccc12)c1nc2ccc(F)cc2s1` the figure was > 80 µM (inactive). With `O=C1c2cccc3cc(Br)cc(c23)C(=O)N1Nc1ccc(Br)cc1` the figure was > 80 µM (inactive); with `CCCNC(=O)c1c(N)n(-c2ccc3c(c2)OCO3)c2nc3ccccc3nc12`, > 80 µM (inactive). Take `COC(=O)c1ccc(COc2ccccc2/C=C(\C#N)C(=O)Nc2c(C)cccc2C)cc1`: the EC50 is > 80 µM (inactive).
